Measured values from PMC10706821, “Folate-Appended Hydroxypropyl-β-Cyclodextrin Induces Autophagic Cell Death in Acute Myeloid Leukemia Cells” (International Journal of Molecular Sciences, 2023).

What was measured:
[1] = tested on: THP-1; assay: modified MTT assay (Cell Counting Kit-8), cell proliferation; assay type: cell-based, human
Procedure: (§1) The trypan blue dye exclusion method was used to evaluate cell viability. Cells (HL-60, THP1, SKM1 and Kasumi1 cells) were seeded in flat-bottomed 96-well plates at a density of 1 × 10^4 cells in 100 µL medium per well and incubated with FA-HP-β-CyD (0, 0,1, 0.25, 0.5, 0.75, 1 mM) or HP-β-CyD (0, 1, 2.5, 5, 10 mM) for 72 h. Then, viable cells were counted. Cell proliferation was evaluated by a modified MTT assay using Cell Counting Kit-8 (Dojindo Molecular Technologies, Kumamoto, Japan), as previously described. AML cells were cultured in 96-well plates at a density of 1 × 10^4 cells in 100 µL medium per well and incubated with FA-HP-β-CyD or HP-β-CyD for 72 h. The half-maximal inhibitory concentration values (IC50) were determined by non-linear regression using CalcuSyn software version 1.1.1 (Biosoft, Cambridge, UK), as previously described. After obtaining IC50 values for each agent, the antileukemic activity of FA-HP-β-CyD plus cytosine arabinoside (Ara-C) or Venetoclax was evaluated, as previously described. […] CalcuSyn was used to calculate the fraction affected (Fa, in which a value of 0.25 indicates […]) and the CI. This method is capable of quantifying synergistic (CI < 1) and antagonistic (CI > 1) effects at different dose and effect levels.

[2] = tested on: HL-60; assay: as above; assay type: cell-based, human
Procedure: as §1

[3] = tested on: SKM-1; assay: as above; assay type: cell-based, human
Procedure: as §1

[4] = tested on: HL-60 cells; assay: AML xenograft survival model; assay type: in vivo, BALB/c Rag-2/JAK3 double-deficient (BRJ) mice; details: HL-60 xenograft, 20 days; for Median Survival Time: HP-β-CyD 2086.5 mg/kg i.p. twice a day, FA-HP-β-CyD 249 mg/kg i.p. twice a day, n = 6
Procedure: (§2) BALB/c Rag-2/JAK3 double-deficient (BRJ) mice were housed in a specific pathogen-free barrier facility and used for the xenograft transplantation experiments. All animal experiments were approved by the Institutional Review Board of Saga University and conducted in accordance with the institutional guidelines of animal care of Saga University.
(§3) HL-60 cells or THP-1 cells were injected intravenously into BRJ mice. After 72 h, mice were injected intraperitoneally with 200 μL of vehicle, FA-HP-β-CyD (15 mM, 249 mg/kg), or HP-β-CyD (150 mM, 2086.5 mg/kg) for 20 consecutive days, and survival was monitored daily. Ara-C (100 mg/kg) was injected intraperitoneally for 5 consecutive days from 72 h after transplantation. Venetoclax (25 mg/kg) was orally administered for 20 consecutive days from 72 h after transplantation. Chimerism of human leukemic cells in the BM was determined by flow cytometry after double staining with FITC-conjugated anti-human CD45 (BD Bioscience) and PE/Cy7-conjugated anti-mouse CD45 (BioLegend) antibodies. All surgery was performed under sodium pentobarbital anesthesia to minimize pain. Mice were euthanized with ether when they became moribund or were unable to obtain food or water, as recommended by Saga University institutional guidelines. Survival data were analyzed using a log-rank nonparametric test and presented as Kaplan–Meier survival curves (n = 6 for each group).

[5] = tested on: THP1 cells; assay: AML xenograft survival model; assay type: in vivo, BALB/c Rag-2/JAK3 double-deficient (BRJ) mice; details: 20 days; for Median Survival Time: Figure 7B, HP-β-CyD 2086.5 mg/kg i.p. twice a day, FA-HP-β-CyD 249 mg/kg i.p. twice a day, Ara-C 100 mg/kg i.p., n = 6
Procedure: as §2, §3

[6] = tested on: HL-60; assay: cell viability with autophagy inhibitors (Cell Counting Kit-8); assay type: cell-based, human; details: 1 mM FA-HP-β-CyD or 10 mM HP-β-CyD, chloroquine 20 μM, LY294002 50 μM, bafilomycin A1 1 nM
Procedure: (§4) HL-60 and THP1 cells (2 × 10^5 cells in 100 µL of RPMI-1640 medium per well) were seeded in flat-bottomed 96-well plates (Greiner Labortechnik, Hamburg, Germany) and treated with both 1 mM of FA-HP-β-CyD and 10 mM of HP-β-CyD at 37 °C for 2 h. The cells were then pretreated for 24 h with the autophagy inhibitors chloroquine (20 µM), LY294002 (50 μM; Fujifilm Wako Pure Chemicals Co., Ltd., Osaka, Japan), or bafilomycin A1 (1 nM; Funakoshi, Tokyo, Japan). Cell proliferation was assessed using Cell Counting Kit-8.

[7] = tested on: THP1; assay: as above; assay type: cell-based, human; details: 1 mM FA-HP-β-CyD or 10 mM HP-β-CyD, chloroquine 20 μM, LY294002 50 μM, bafilomycin A1 1 nM
Procedure: as §4

[8] = tested on: HL-60; assay: cell cycle analysis (PI, flow cytometry); assay type: cell-based, human; details: HL-60, 24 h
Procedure: (§5) Cell cycle analyses of AML cell lines (HL-60, THP1, SKM1, and Kasumi1 cells) were performed as described previously. In brief, 1 × 10^6 cells were treated with the indicated concentrations of CyDs. After 24 h of CyD treatment, cells were collected and fixed with 70% ethanol. Cells were then incubated at room temperature for 30 min with 0.1% Triton X-100/0.5% RNase A and stained with 50 μg/mL PI (BD Biosciences, San Jose, CA, USA). Cellular DNA content was analyzed by flow cytometry, and cell cycle profiles were determined in a FACS CantoII flow cytometer with CellQuest software (version 1.0.6, BD Biosciences).

[9] = tested on: THP1; assay: cell cycle analysis (PI, flow cytometry); assay type: cell-based, human; details: THP1, 24 h
Procedure: as §5

[10] = tested on: Kasumi1; assay: cell cycle analysis (PI, flow cytometry); assay type: cell-based, human; details: Kasumi1, 24 h
Procedure: as §5

[11] = tested on: SKM1; assay: cell cycle analysis (PI, flow cytometry); assay type: cell-based, human; details: SKM1
Procedure: as §5

[12] = tested on: AML cell lines; assay: trypan blue dye exclusion, cell viability; assay type: cell-based, human; details: 72 h; FA-HP-β-CyD up to 1 mM, HP-β-CyD up to 10 mM
Procedure: (§6) The trypan blue dye exclusion method was used to evaluate cell viability. Cells (HL-60, THP1, SKM1 and Kasumi1 cells) were seeded in flat-bottomed 96-well plates at a density of 1 × 10^4 cells in 100 µL medium per well and incubated with FA-HP-β-CyD (0, 0,1, 0.25, 0.5, 0.75, 1 mM) or HP-β-CyD (0, 1, 2.5, 5, 10 mM) for 72 h. Then, viable cells were counted. Cell proliferation was evaluated by a modified MTT assay using Cell Counting Kit-8 (Dojindo Molecular Technologies, Kumamoto, Japan), as previously described. AML cells were cultured in 96-well plates at a density of 1 × 10^4 cells in 100 µL medium per well and incubated with FA-HP-β-CyD or HP-β-CyD for 72 h. […] This method is capable of quantifying synergistic (CI < 1) and antagonistic (CI > 1) effects at different dose and effect levels.

[13] = tested on: HL-60; assay: autophagosome formation (DAPGreen); assay type: cell-based, human; details: HL-60, 1 or 10 mM, 2 h
Procedure: (§7) Autophagosome formation was evaluated using the DAPGreen-Autophagy Detection Kit (Dojindo Molecular Technologies). HL-60 and THP1 cells were cultured overnight in 6-well plates at a density of 5 × 10^5 or 1 × 10^6 cells. The cells were then washed once with culture medium and incubated with DAPGreen working solution at 37 °C for 30 min. After the cells were washed twice, CyDs (1 mM, 10 mM) were added to the wells and incubated for 2 h. The samples were analyzed using a flow cytometer (FACS Canto II) or a fluorescence microscope (Carl Zeiss, Jena, Germany).

[14] = tested on: THP1; assay: autophagosome formation (DAPGreen); assay type: cell-based, human; details: THP1, 1 or 10 mM, 2 h
Procedure: as §7

[15] = tested on: Kasumi-1; assay: modified MTT assay (Cell Counting Kit-8), cell proliferation; assay type: cell-based, human; details: Kasumi-1, 72 h
Procedure: as §6

[16] = mouse, in vivo, ip
Procedure: At 24 h after the first injection, and at 8 days after the last of seven repeat injections, peripheral blood was collected from the tail vein and analyzed by an automated blood cell counter (Celltacα MEK-6500; NIHON KOHDEN, Tokyo, Japan). Data are presented as the mean ± SEM of three independent experiments.

[17] = tested on: AML cell lines; assay: Annexin V and PI staining, statements over all AML cell lines; assay type: cell-based, human; details: four AML cell lines, 72 h
Procedure: PI and Annexin V (BD Biosciences, San Jose, CA, USA) staining was performed to assess apoptosis, as previously described [53]. Cells were filtered through nylon mesh and assessed using a FACSVerse flow cytometer (BD Biosciences). Data were analyzed using FlowJo software 10.8.2 (Tree Star, Inc., Ashland, OR, USA).

[18] = Figure 7C, Venetoclax 25 mg/kg oral gavage daily
[19] = Figure 7A, Ara-C 100 mg/kg i.p.

Compound: CC1(C)CCC(CN2CCN(c3ccc(C(=O)NS(=O)(=O)c4ccc(NCC5CCOCC5)c([N+](=O)[O-])c4)c(Oc4cnc5[nH]ccc5c4)c3)CC2)=C(c2ccc(Cl)cc2)C1 [Venetoclax]
- IC50 ([1]; Homo sapiens, THP-1, THP1): 0.442 µM
- IC50 ([2]; Homo sapiens, HL-60): 50.3 nM
- IC50 ([3]; Homo sapiens, SKM-1, SKM1): 1100 nM
- Median Survival Time [4, 18]: 36 days

Compound: Nc1ccn([C@@H]2O[C@H](CO)[C@@H](O)[C@@H]2O)c(=O)n1 [Ara-C, cytarabine]
- IC50 ([1]; Homo sapiens, THP-1, THP1): 7.19 µM
- IC50 ([2]; Homo sapiens, HL-60): 495 nM
- IC50 ([3]; Homo sapiens, SKM-1, SKM1): 600 nM
- Median Survival Time [5]: 45.5 days
- Median Survival Time [4, 19]: 34 days

Compound: folate-conjugated HP-β-CyD [FA-HP-β-CyD]
- IC50 ([1]; THP-1, 72 h): 320 µM
- IC50 ([2]; HL-60, 72 h): 620000 nM
- IC50 ([3]; SKM-1, 72 h): 200000 nM
- viability in the presence of autophagy inhibitors vs CyD alone [6]: higher than that in the presence of FA-HP-β-CyD alone
- viability in the presence of autophagy inhibitors vs CyD alone [7]: higher than that in the presence of FA-HP-β-CyD alone
- effect on cell cycle status [8]: no alteration in cell cycle status
- effect on cell cycle status [9]: no alteration in cell cycle status
- effect on cell cycle status [10]: no alteration in cell cycle status
- effect on cell cycle status (predicted, no experimental data) [11]: no change in the cell cycle status was predicted
- cell viability (trypan blue) [12]: reduced the cell viability of the AML cell lines in a dose-dependent manner
- number of autophagic vacuoles (DAPGreen fluorescence) [13]: increased
- number of autophagic vacuoles (DAPGreen fluorescence) [14]: increased
- IC50 [15]: 300 µM
- survival compared with vehicle-injected mice ([5]; 249 mg/kg i.p. b.i.d.): survived significantly longer
- Median Survival Time [5]: 50.5 days
- Median Survival Time [4, 19]: 38 days
- Median Survival Time [4, 18]: 35 days
- survival compared with vehicle-injected mice ([4]; 249 mg/kg i.p. b.i.d.): survived significantly longer
- adverse effects on white blood cell counts, hemoglobin concentrations, platelet counts [16]: no adverse effects
- apoptosis induction [17]: triggered early apoptosis in four AML cell lines in a dose-dependent manner
